Source: US9078444B2, “Isothiazoline derivatives as insecticidal compounds” (Syngenta Participations AG, priority 2011, dated 2015)
Where two headings read alike, the source gives them in different places.

Assays:
Format in all cases: in vivo
Spodoptera littoralis [1] = test: Spodoptera littoralis persistence test on sprayed cotton plants (increased safety profile / bio-degradability); conditions: for Control after 10 days/%: leaves excised 10 days after treatment; for pest or weed control at 12.5 ppm: Spodoptera littoralis
Experimental: Biological Examples Showing Increased Safety Profile:
Spodoptera littoralis (Egyptian Cotton Leafworm)
Cotton plants in the 5th leaf stage (around 5 weeks old) are treated in an automated turn table spray chamber. Plants are stored in the greenhouse length during the whole test period.
2, 16 and optionally 10 days after treatment 4 leaves from each sample are excised, placed into 14 cm plastic petri dishes on wet filter paper. The infestation of 10 L3-Spodoptera littoralis is made immediately afterwards. After an incubation period of 6 days the samples are checked for mortality.
In the following series of experiments the compounds of the invention are compared with the corresponding isoxazoline analogues from the prior art on Spodoptera littoralis (Egyptian cotton leafworm) performed as described in the method above.

Spodoptera littoralis [2] = test: Spodoptera littoralis (Egyptian cotton leafworm) cotton leaf disc test; conditions: foliar, 72 h, 200 ppm sprayed on cotton leaf discs, mortality, feeding behavior, growth regulation 3 days after treatment
Experimental: Spodoptera littoralis (Egyptian Cotton Leafworm): Cotton leaf discs were placed on agar in a 24-well microtiter plate and sprayed with test solutions at an application rate of 200 ppm. After drying, the leaf discs were infested with […]. The samples were checked for mortality, feeding behavior, and growth regulation 3 days after treatment (DAT).

Heliothis virescens = Heliothis virescens (tobacco budworm) egg test on artificial diet; conditions: 96 h, 200 ppm (concentration in well 18 ppm), eggs on artificial diet, egg mortality, larval mortality, growth regulation after 4 days
Experimental: Heliothis virescens (Tobacco Budworm): Eggs (0-24 h old) were placed in 24-well microtiter plate on artificial diet and treated with test solutions at an application rate of 200 ppm (concentration in well 18 ppm) by pipetting. After an incubation period of 4 days, samples were checked for egg mortality, larval mortality, and growth regulation.

Plutella xylostella = Plutella xylostella (diamond back moth) artificial diet test; conditions: 144 h, 200 ppm (concentration in well 18 ppm), L2 larvae, larval mortality and growth regulation after 6 days
Experimental: (§1) Plutella xylostella (Diamond Back Moth): 24-well microtiter plate (MTP) with artificial diet was treated with test solutions at an application rate of 200 ppm (concentration in well 18 ppm) by pipetting. After drying, the MTPs were infested with L2 larvae (7-12 per well). After an incubation period of 6 days, samples were checked for larval mortality and growth regulation.

Diabrotica balteata = Diabrotica balteata (corn root worm) artificial diet test; conditions: 120 h, 200 ppm (concentration in well 18 ppm), L2 larvae, larval mortality and growth regulation after 5 days
Experimental: as §1, with “Diabrotica balteata (Corn Root Worm): A” for “Plutella xylostella (Diamond Back Moth):”, “(6-10” for “(7-12”, “5” for “6”

Thrips tabaci = Thrips tabaci (onion thrips) sunflower leaf disc test; conditions: foliar, 168 h, 200 ppm sprayed on sunflower leaf discs, mixed ages, mortality after 7 days
Experimental: Thrips tabaci (Onion Thrips): Sunflower leaf discs were placed on agar in a 24-well microtiter plate and sprayed with test solutions at an application rate of 200 ppm. After drying, the leaf discs were infested with a thrips population of mixed ages. After an incubation period of 7 days, samples were checked for mortality.

Tetranychus urticae = Tetranychus urticae (two-spotted spider mite) bean leaf disc test; conditions: foliar, 192 h, 200 ppm sprayed on bean leaf discs, mixed ages, egg, larval and adult mortality 8 days later
Text: Tetranychus urticae (Two-Spotted Spider Mite): Bean leaf discs on agar in 24-well microtiter plates were sprayed with test solutions at an application rate of 200 ppm. After drying, the leaf discs are infested with mite populations of mixed ages. 8 days later, discs are checked for egg mortality, larval mortality, and adult mortality.

[3] = 12.5 ppm on cotton plants, 10 L3 larvae, mortality after 6 days incubation
[4] = 48 h, 12.5 ppm on cotton plants, leaves excised 2 days after treatment, 10 L3 larvae, mortality after 6 days incubation, read-out: Control after 2 days/%
[5] = 384 h, 12.5 ppm on cotton plants, leaves excised 16 days after treatment, 10 L3 larvae, mortality after 6 days incubation, read-out: Control after 16 days/%

Structure (SMILES) | Control after 10 days/% (Spodoptera littoralis [1]; [3]) [%] | pest or weed control at 12.5 ppm (Spodoptera littoralis [1]; [4]) [%] | pest or weed control at 12.5 ppm (Spodoptera littoralis [1]; [5]) [%] | pest or weed control at 200 ppm (Spodoptera littoralis [2]) [%] | pest or weed control at 200 ppm (Heliothis virescens) [%] | pest or weed control at 200 ppm (Plutella xylostella) [%] | pest or weed control at 200 ppm (Diabrotica balteata) [%] | pest or weed control at 200 ppm (Thrips tabaci) [%] | pest or weed control at 200 ppm (Tetranychus urticae) [%] | pest or weed control at 12.5 ppm (Spodoptera littoralis [1]; 48 h, read-out: Control after 2 days/%) [%] | pest or weed control at 12.5 ppm (Spodoptera littoralis [1]; 384 h, read-out: Control after 16 days/%) [%] | Control after 2 days/% (Spodoptera littoralis [1]; 12.5 ppm on cotton plants, leaves excised 2 days after treatment, 10 L3 larvae, mortality after 6 days incubation) [%] | Control after 16 days/% (Spodoptera littoralis [1]; 12.5 ppm on cotton plants, leaves excised 16 days after treatment, 10 L3 larvae, mortality after 6 days incubation) [%]
Cc1cc(C2=NOC(c3cc(Cl)cc(Cl)c3)(C(F)(F)F)C2)ccc1C(=O)NCc1ccccn1 (stereo not drawn) [Compound 1-061 from EP1731512, reference compound] | 100 | 100 | 100 | – | – | – | – | – | – | – | – | – | –
Cc1cc(C2=NOC(c3cc(Cl)cc(Cl)c3)(C(F)(F)F)C2)ccc1C(=O)NCC(=O)NCC(F)(F)F (stereo not drawn) [Compound 3-086 from EP1731512, reference compound] | 100 | 100 | 100 | – | – | – | – | – | – | – | – | – | –
Cc1cc(C2=NSC(c3cc(Cl)cc(Cl)c3)(C(F)(F)F)C2)ccc1C(=O)NCC(=O)NCC(F)(F)F (stereo not drawn) [Compound A01, 4-[5-(3,5-dichlorophenyl)-5-(trifluoromethyl)-4H-isothiazol-3-yl]-2-methyl-N-[2-oxo-2-(2,2,2-trifluoroethylamino)ethyl]benzamide] | 60 | 100 | 10 | ≥ 80 | ≥ 80 | ≥ 80 | ≥ 80 | ≥ 80 | ≥ 80 | – | – | – | –
Cc1cc(C2=NSC(c3cc(Cl)cc(Cl)c3)(C(F)(F)F)C2)ccc1C(=O)NC1CS(=O)(=O)C1 (stereo not drawn) [Compound A02, 4-[5-(3,5-dichlorophenyl)-5-(trifluoromethyl)-4H-isothiazol-3-yl]-N-(1,1-dioxothietan-3-yl)-2-methyl-benzamide] | 35 | – | – | ≥ 80 | ≥ 80 | ≥ 80 | ≥ 80 | ≥ 80 | ≥ 80 | 100 | 5 | – | –
Cc1cc(C2=NOC(c3cc(Cl)cc(Cl)c3)(C(F)(F)F)C2)ccc1C(=O)NC1CS(=O)(=O)C1 (stereo not drawn) [Compound A10 from WO2009/080250, reference compound] | 100 | 100 | 100 | – | – | – | – | – | – | – | – | – | –
Cc1cc(C2=NSC(c3cc(Cl)cc(Cl)c3)(C(F)(F)F)C2)ccc1C(=O)NC(C)c1ccccc1 (stereo not drawn) [Compound A12] | – | 30 | – | ≥ 80 | ≥ 80 | ≥ 80 | ≥ 80 | ≥ 80 | ≥ 80 | – | – | – | –
Cc1cc(C2=NSC(c3cc(Cl)cc(Cl)c3)(C(F)(F)F)C2)ccc1C(=O)NCc1ccccn1 (stereo not drawn) [Compound A16] | 25 | 100 | 10 | ≥ 80 | ≥ 80 | ≥ 80 | ≥ 80 | ≥ 80 | ≥ 80 | – | – | – | –
Cc1cc(C2=NSC(c3cc(Cl)cc(Cl)c3)(C(F)(F)F)C2)ccc1C(=O)NC1CCC1 (stereo not drawn) [Compound A24] | – | – | – | – | – | – | – | – | – | – | – | 100 | 0
Cc1cc(C2=NSC(c3cc(Cl)cc(Cl)c3)(C(F)(F)F)C2)ccc1C(=O)NC1(C#N)CC1 (stereo not drawn) [Compound A45] | – | 75 | 0 | ≥ 80 | ≥ 80 | ≥ 80 | ≥ 80 | ≥ 80 | ≥ 80 | – | – | – | –
Cc1cc(C2=NSC(c3cc(Cl)cc(Cl)c3)(C(F)(F)F)C2)ccc1C(=O)NCC(C)C (stereo not drawn) [Compound A46] | – | 40 | 0 | ≥ 80 | ≥ 80 | ≥ 80 | ≥ 80 | ≥ 80 | ≥ 80 | – | – | – | –
Cc1cc(C2=NSC(c3cc(Cl)cc(Cl)c3)(C(F)(F)F)C2)ccc1C(=O)NCC1CC1 (stereo not drawn) [Compound A53] | – | 85 | 0 | ≥ 80 | ≥ 80 | ≥ 80 | ≥ 80 | ≥ 80 | ≥ 80 | – | – | – | –
Cc1cc(C2=NS[C@@](c3cc(Cl)cc(Cl)c3)(C(F)(F)F)C2)ccc1C(=O)N[C@@H]1CON(CC(F)(F)F)C1=O [Compound A79, 4-[(5S)-5-(3,5-dichlorophenyl)-5-(trifluoromethyl)-4H-isothiazol-3-yl]-2-methyl-N-[(4R)-3-oxo-2-(2,2,2-trifluoroethyl)isoxazolidin-4-yl]benzamide] | – | – | – | ≥ 80 | ≥ 80 | ≥ 80 | ≥ 80 | ≥ 80 | ≥ 80 | – | – | – | –
N#Cc1cc(C2=NSC(c3cc(Cl)cc(Cl)c3)(C(F)(F)F)C2)ccc1-n1cncn1 (stereo not drawn) [Compound B1, 5-[5-(3,5-dichlorophenyl)-5-(trifluoromethyl)-4,5-dihydro-isothiazol-3-yl]-2-(1,2,4-triazol-1-yl)benzonitrile] | – | – | – | ≥ 80 | ≥ 80 | ≥ 80 | ≥ 80 | ≥ 80 | ≥ 80 | – | – | – | –
N#Cc1cc(C2=NS[C@@](c3cc(Cl)c(Cl)c(Cl)c3)(C(F)(F)F)C2)ccc1-n1cncn1 [Compound B2, 2-(1,2,4-triazol-1-yl)-5-[(5S)-5-(3,4,5-trichlorophenyl)-5-(trifluoromethyl)-4H-isothiazol-3-yl]benzonitrile] | – | – | – | ≥ 80 | ≥ 80 | ≥ 80 | ≥ 80 | ≥ 80 | ≥ 80 | – | – | – | –
CCO/N=C/NC(=O)c1ccc(C2=NSC(c3cc(Cl)cc(Cl)c3)(C(F)(F)F)C2)cc1C (stereo not drawn) [Compound C2, 4-[5-(3,5-dichlorophenyl)-5-(trifluoromethyl)-4H-isothiazol-3-yl]-N-[(E)-ethoxyiminomethyl]-2-methyl-benzamide] | – | – | – | ≥ 80 | ≥ 80 | ≥ 80 | ≥ 80 | ≥ 80 | ≥ 80 | – | – | – | –
Cc1cc(C2=NSC(c3cc(Cl)c(Cl)c(Cl)c3)(C(F)(F)F)C2)ccc1C(=O)NC1CS(=O)(=O)C1 (stereo not drawn) [Compound D2, N-(1,1-dioxothietan-3-yl)-2-methyl-4-[5-(3,4,5-trichlorophenyl)-5-(trifluoromethyl)-4H-isothiazol-3-yl]benzamide] | – | – | – | ≥ 80 | ≥ 80 | ≥ 80 | ≥ 80 | ≥ 80 | ≥ 80 | – | – | – | –
Cc1cc(C2=NSC(c3cc(Cl)c(Cl)c(Cl)c3)(C(F)(F)F)C2)ccc1C(=O)NC1C[S+]([O-])C1 (stereo not drawn) [Compound D3, 2-methyl-N-(1-oxothietan-3-yl)-4-[5-(3,4,5-trichlorophenyl)-5-(trifluoromethyl)-4H-isothiazol-3-yl]benzamide] | – | – | – | ≥ 80 | ≥ 80 | ≥ 80 | ≥ 80 | ≥ 80 | ≥ 80 | – | – | – | –
